Results: ChEMBL document CHEMBL5465560, “Selectivity Literature for EUbOPEN Chemogenomic Library” (2024)

How the values were obtained:
[1] = molecular target: Ribosomal protein S6 kinase alpha-4 (Homo sapiens) (UniProt O75676); assay: Selectivity interaction (KinomeScan (DiscoverX)) EUB0001079a RPS6KA4; details: at 1 µM
Aurora kinase B = Aurora kinase B (Homo sapiens, UniProt Q96GD4); assay: Selectivity interaction (KinomeScan (DiscoverX)) EUB0001550a AURKB; details: at 1 µM
[2] = molecular target: Dual specificity protein kinase CLK4 (Homo sapiens, UniProt Q9HAZ1); assay: Selectivity interaction (Enzymatic assay) EUB0001550a CLK4
[3] = molecular target: T1, Serine/threonine-protein kinase 3 (Homo sapiens) (UniProt Q13188); assay: Selectivity interaction (ActivX KiNativ screen (kinase selectivity in THP-1 cell lysates)) EUB0000639a STK3; assay type: subcellular; details: lysate, at 5 µM
T1 sequence (whole entry): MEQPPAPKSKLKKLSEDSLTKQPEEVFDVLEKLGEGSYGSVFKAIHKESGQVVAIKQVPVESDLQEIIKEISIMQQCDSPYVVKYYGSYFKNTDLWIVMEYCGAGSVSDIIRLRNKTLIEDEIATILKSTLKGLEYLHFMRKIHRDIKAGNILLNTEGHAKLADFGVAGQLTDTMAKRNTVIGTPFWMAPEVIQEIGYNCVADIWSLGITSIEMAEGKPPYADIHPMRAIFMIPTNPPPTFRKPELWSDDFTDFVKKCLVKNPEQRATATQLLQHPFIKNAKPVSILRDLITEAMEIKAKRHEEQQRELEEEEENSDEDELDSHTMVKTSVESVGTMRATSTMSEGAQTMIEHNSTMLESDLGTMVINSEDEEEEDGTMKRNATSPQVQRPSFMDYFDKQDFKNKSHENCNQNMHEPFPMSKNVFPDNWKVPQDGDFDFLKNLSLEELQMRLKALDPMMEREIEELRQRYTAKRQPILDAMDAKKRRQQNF

[4] = molecular target: Serine/threonine-protein kinase SMG1 (Homo sapiens) (UniProt Q96Q15); assay: Selectivity interaction (ActivX KiNativ screen (kinase selectivity in THP-1 cell lysates)) EUB0000639a SMG1; assay type: subcellular; details: lysate, at 5 µM
[5] = molecular target: Serine/threonine-protein kinase 32C (Homo sapiens) (UniProt Q86UX6); assay: Selectivity interaction (KinomeScan (DiscoverX)) EUB0000045b STK32C
[6] = molecular target: Serine/threonine-protein kinase Nek7 (Homo sapiens) (UniProt Q8TDX7); details: at 10 µM
[7] = molecular target: T2, Ephrin type-B receptor 1 (Homo sapiens) (UniProt P54762); assay: Selectivity interaction (Upstate Kinase Profiler service (Millipore)) EUB0000056c EPHB1; details: at 1 µM
T2 sequence (whole entry): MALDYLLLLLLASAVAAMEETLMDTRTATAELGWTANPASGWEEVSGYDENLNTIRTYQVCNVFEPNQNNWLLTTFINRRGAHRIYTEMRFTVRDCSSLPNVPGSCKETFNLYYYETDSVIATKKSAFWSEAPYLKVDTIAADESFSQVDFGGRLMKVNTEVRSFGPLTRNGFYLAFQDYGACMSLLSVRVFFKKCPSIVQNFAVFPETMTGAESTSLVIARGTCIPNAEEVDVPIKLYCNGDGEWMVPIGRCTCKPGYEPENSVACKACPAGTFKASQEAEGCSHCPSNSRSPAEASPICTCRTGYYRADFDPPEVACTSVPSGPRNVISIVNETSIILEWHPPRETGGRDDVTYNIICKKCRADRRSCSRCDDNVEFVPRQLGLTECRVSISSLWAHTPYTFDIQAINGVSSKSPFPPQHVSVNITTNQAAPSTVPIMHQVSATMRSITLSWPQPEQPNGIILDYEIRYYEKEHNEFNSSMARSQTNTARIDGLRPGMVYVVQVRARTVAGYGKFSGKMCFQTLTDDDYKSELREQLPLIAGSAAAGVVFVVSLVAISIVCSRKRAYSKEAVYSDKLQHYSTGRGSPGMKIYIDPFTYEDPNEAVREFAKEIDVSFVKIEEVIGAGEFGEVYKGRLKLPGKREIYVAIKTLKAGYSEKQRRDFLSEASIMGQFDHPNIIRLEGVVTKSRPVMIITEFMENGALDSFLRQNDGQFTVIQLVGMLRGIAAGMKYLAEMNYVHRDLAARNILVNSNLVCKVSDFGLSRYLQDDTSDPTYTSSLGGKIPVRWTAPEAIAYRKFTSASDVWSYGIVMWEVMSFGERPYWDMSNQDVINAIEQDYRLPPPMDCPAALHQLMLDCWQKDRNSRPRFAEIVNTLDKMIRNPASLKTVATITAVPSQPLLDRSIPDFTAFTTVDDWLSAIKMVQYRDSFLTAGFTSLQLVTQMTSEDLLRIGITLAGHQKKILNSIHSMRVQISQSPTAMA

[8] = molecular target: Mitogen-activated protein kinase 14 (Homo sapiens, UniProt Q16539); assay: Selectivity interaction (KinomeScan (DiscoverX)) EUB0000695a MAPK14; details: at 100 nM
[9] = molecular target: AMP-activated protein kinase (AMPK) alpha-1/beta-1/gamma-1 (Homo sapiens) (UniProt P54619+Q9Y478+Q13131); assay: (§1) Selectivity interaction (SelectScreen profiling (Invitrogen)) EUB0000607a PRKAA1; assay type: protein-complex assay; details: at 2 µM
[10] = molecular target: AMPK alpha2/beta1/gamma1 (Homo sapiens) (UniProt P54646+P54619+Q9Y478); assay: as §1; assay type: protein-complex assay; details: at 2 µM
[11] = system: RAF proto-oncogene serine/threonine-protein kinase (Homo sapiens), P04049 [Y340D,Y341D]; assay: Selectivity interaction (SelectScreen profiling (Invitrogen)) EUB0000607a RAF1; details: at 2 µM
[12] = molecular target: T3, Rhodopsin kinase GRK7 (Homo sapiens) (UniProt Q8WTQ7); assay: Selectivity interaction (Kinase panel (Z-LYTE Assay)) EUB0001632a GRK7; details: at 10 µM
T3 sequence (whole entry): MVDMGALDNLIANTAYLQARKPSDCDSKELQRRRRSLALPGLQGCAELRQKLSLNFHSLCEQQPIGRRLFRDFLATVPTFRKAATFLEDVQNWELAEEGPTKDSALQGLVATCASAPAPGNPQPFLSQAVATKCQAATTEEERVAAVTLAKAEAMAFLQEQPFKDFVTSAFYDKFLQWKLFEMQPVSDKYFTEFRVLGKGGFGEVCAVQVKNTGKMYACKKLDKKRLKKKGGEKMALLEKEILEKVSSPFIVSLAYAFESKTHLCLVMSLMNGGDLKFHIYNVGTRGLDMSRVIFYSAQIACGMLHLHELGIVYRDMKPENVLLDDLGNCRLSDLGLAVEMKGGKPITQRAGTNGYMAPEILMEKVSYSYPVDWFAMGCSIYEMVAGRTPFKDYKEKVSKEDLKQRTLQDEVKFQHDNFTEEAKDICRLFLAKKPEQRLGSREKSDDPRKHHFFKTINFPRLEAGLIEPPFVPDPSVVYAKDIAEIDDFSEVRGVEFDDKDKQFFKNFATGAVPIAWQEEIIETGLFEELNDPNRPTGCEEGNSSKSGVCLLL

Sequence of Serine/threonine-protein kinase 32C (Homo sapiens) (Q86UX6 whole entry): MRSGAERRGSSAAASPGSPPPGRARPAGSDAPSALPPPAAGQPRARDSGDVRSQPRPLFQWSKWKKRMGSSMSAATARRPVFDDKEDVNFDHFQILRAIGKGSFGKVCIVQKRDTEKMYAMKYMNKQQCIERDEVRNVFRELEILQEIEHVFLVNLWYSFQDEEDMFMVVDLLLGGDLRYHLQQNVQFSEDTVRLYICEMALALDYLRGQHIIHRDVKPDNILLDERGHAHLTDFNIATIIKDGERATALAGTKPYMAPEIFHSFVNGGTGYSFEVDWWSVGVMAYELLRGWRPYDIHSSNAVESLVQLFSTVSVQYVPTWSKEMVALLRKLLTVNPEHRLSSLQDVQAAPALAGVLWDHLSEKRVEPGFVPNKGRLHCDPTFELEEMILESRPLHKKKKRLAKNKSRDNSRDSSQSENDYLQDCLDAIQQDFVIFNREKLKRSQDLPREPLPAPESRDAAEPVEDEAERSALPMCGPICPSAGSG
Sequence of Dual specificity protein kinase CLK4 (Q9HAZ1 whole entry): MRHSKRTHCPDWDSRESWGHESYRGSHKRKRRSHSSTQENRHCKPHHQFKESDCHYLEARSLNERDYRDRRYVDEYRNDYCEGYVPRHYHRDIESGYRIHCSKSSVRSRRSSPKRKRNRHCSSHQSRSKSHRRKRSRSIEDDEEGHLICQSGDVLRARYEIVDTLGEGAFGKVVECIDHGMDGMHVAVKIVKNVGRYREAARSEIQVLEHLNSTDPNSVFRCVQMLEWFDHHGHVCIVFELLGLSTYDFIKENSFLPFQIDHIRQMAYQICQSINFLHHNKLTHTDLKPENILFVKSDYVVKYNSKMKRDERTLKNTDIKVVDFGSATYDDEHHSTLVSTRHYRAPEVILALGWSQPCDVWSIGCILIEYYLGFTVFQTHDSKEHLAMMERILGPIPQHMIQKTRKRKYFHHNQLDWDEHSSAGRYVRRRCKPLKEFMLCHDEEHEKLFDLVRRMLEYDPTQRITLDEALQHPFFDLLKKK
Sequence of Ribosomal protein S6 kinase alpha-4 (Homo sapiens) (O75676 whole entry, looked up): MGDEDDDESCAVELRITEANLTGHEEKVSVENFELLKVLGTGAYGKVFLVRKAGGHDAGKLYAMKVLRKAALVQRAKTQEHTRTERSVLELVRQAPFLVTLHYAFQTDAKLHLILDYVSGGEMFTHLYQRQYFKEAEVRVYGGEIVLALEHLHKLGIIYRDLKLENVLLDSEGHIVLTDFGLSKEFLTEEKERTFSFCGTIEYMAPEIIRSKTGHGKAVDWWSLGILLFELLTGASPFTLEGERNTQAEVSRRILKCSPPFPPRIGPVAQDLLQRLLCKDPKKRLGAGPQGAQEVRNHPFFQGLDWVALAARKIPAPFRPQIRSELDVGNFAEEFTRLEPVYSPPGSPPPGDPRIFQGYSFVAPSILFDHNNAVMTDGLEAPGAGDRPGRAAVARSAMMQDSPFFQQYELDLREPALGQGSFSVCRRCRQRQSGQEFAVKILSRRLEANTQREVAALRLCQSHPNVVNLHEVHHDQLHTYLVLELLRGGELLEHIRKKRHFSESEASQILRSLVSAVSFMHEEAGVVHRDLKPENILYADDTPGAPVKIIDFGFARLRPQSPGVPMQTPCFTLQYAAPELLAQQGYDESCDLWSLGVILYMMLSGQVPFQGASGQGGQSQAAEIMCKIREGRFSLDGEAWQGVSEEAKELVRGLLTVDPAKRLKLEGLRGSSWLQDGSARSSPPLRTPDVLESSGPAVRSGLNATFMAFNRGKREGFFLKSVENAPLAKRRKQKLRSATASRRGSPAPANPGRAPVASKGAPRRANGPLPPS
Sequence of RAF proto-oncogene serine/threonine-protein kinase (Homo sapiens), P04049 [Y340D,Y341D] (P04049 whole entry Y340D/Y341D): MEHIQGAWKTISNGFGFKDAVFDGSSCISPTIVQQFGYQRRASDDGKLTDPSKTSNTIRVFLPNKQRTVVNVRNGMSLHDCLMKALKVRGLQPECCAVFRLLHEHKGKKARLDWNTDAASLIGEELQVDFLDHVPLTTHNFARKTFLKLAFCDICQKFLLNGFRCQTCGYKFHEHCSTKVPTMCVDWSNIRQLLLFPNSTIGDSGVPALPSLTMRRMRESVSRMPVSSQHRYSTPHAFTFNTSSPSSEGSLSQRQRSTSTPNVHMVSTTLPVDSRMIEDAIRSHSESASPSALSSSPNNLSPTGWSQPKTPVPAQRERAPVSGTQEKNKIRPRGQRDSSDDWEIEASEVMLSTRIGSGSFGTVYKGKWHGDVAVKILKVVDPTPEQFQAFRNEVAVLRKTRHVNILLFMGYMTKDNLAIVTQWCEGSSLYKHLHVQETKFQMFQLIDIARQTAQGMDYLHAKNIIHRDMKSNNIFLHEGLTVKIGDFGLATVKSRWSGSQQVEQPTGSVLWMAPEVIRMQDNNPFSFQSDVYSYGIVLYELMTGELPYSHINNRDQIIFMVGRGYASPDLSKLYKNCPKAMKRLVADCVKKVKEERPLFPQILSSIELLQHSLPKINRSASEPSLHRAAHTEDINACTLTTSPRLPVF
Sequence of Aurora kinase B (Q96GD4 whole entry): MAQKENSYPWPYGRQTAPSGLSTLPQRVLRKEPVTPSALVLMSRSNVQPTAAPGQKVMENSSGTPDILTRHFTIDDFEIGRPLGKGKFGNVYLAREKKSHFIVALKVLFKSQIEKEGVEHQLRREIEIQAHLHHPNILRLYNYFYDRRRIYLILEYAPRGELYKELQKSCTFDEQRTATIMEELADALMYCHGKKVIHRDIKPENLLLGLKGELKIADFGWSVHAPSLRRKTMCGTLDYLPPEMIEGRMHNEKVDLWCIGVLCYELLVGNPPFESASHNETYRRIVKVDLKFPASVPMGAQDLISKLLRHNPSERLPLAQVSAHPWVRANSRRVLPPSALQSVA
Sequence of Mitogen-activated protein kinase 14 (Q16539 whole entry): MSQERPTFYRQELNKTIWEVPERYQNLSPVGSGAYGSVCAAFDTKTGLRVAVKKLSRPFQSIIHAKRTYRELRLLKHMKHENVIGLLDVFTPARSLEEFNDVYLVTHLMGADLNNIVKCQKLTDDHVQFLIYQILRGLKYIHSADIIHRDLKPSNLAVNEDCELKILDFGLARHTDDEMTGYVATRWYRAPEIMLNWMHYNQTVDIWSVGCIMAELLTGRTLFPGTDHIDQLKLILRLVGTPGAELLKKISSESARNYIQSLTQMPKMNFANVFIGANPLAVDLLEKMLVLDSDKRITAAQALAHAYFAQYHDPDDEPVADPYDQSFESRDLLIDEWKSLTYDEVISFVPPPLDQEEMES
Sequence of AMP-activated protein kinase (AMPK) alpha-1/beta-1/gamma-1 (Homo sapiens) (P54619 whole entry): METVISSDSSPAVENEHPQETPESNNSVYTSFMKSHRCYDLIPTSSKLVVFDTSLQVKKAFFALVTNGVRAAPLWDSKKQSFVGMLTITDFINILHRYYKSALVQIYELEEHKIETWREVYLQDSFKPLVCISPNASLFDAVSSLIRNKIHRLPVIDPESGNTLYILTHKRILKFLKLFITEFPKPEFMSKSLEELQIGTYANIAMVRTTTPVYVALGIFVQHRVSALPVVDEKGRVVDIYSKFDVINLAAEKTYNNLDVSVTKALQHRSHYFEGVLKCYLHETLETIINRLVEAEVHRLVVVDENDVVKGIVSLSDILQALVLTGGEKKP
Sequence of AMP-activated protein kinase (AMPK) alpha-1/beta-1/gamma-1 (Homo sapiens) (Q13131 whole entry partner): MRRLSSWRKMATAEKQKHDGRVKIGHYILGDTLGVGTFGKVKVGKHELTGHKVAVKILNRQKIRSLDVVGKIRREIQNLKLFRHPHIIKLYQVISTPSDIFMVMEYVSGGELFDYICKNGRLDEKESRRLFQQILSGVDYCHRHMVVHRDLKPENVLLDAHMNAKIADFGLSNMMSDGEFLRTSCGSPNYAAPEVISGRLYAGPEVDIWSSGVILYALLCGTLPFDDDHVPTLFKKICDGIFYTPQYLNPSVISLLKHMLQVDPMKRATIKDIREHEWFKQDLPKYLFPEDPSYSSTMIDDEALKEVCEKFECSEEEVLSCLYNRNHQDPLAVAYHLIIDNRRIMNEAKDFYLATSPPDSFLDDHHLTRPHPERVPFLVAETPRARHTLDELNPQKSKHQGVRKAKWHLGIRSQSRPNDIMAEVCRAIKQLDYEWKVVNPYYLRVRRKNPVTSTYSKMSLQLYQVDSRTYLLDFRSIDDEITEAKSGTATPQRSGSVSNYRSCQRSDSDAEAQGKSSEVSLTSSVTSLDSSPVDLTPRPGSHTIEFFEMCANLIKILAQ
Sequence of AMP-activated protein kinase (AMPK) alpha-1/beta-1/gamma-1 (Homo sapiens) (Q9Y478 2-270 partner limits assumed): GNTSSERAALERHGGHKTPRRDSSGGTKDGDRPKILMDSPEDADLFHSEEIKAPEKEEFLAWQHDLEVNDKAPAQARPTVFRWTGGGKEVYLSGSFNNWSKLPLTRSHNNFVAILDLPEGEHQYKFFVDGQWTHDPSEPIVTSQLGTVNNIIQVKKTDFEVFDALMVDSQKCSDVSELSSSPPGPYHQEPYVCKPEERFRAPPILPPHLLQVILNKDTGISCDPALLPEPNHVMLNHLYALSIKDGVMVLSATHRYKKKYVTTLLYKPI
Sequence of Serine/threonine-protein kinase Nek7 (Homo sapiens) (Q8TDX7 whole entry, looked up): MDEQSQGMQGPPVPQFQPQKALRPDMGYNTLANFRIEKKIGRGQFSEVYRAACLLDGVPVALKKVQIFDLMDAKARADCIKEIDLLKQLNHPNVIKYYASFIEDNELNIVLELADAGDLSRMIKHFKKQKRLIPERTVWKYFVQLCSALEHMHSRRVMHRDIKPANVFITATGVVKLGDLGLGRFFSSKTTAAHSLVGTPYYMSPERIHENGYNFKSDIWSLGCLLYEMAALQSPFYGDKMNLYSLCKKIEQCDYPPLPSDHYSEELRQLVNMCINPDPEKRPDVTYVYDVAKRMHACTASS

Nc1cnc(N2CCc3cc(S(=O)(=O)Nc4c(F)cc(Cl)cc4F)cc(N4CCCC4=O)c32)nc1 [TP-020n]
% of control [1]: 100%

CN(C)CC#Cc1ccc2[nH]c3c(c2c1)-c1nc(N)ncc1CCC3
% of control (Aurora kinase B): 23%
IC50 [2]: 0.44 µM

CC[C@@H]1[C@H](F)C(=O)N[C@@H]1COc1nccc2cc(C(N)=O)c(OC)cc12 [ZIMLOVISERTIB]
% of inhibition [3]: -19.6%
% of inhibition [4]: -11.2%

C=CC(=O)Nc1cc(-n2c(=O)ccc3cnc4ccc(-c5ccc(NS(C)(=O)=O)cc5)cc4c32)ccc1C
% of control ([5]; at 1 µM): 100%
% of control ([5]; at 10 µM): 100%

Cc1cc([C@@H](C)Nc2ccccc2C(=O)O)c2nc(N3CCOCC3)cc(=O)n2c1 [AZD-6482]
% of control [6]: 100%

Cc1ccc(-c2ccc3c(ccc4sc5c(c43)NC[C@@H](C)NC5=O)n2)cn1
% of inhibition [7]: 9%

Cc1cc(F)c(C(=O)Nc2cccc(-c3nncn3C(C)C)n2)cc1-n1cnc(C2CC2)c1
% of control [8]: 100%

CNC(=O)Nc1ccc(-c2nc(N3CC4CCC(C3)O4)c3cnn(C4CCC5(CC4)OCCO5)c3n2)cc1
% of inhibition [9]: 5%
% of inhibition [10]: 7%
% of inhibition [11]: 12%

Cn1cc(-n2cnc3c(NCc4nc5cc(Cl)c(Cl)cc5[nH]4)nc(N4CCOCC4)nc32)cn1
% of control [12]: -0.279%
